Laboratory results from patent US10047051B2, “Substituted pyridines and method of use” (AbbVie S.á{acute over (.)}r.l., priority 2015, dated 2018).
pEC50: −log10 of the molar value.

Columns and labels:
Type in all cases: cell-based
CFTR-R117H = biological target: T1, CFTR-R117H (Homo sapiens, UniProt P13569, R117H); assay: YFP-halide influx assay for the CFTR-R117H
T1 construct: expressed in transfected cells
Excerpt: (§1) The YFP halide influx assay measured the functionality of the cystic fibrosis Transmembrane Conductance regulator (CFTR) channels. The assay was used to evaluate the capacity of compounds to increase the channel opening of existing mutant CFTR channels in the membrane. It makes use of the observation that the yellow fluorescent protein (YFP) variant YFP H148Q, I152L, F47L has its fluorescence substantially quenched by halide ions like Cl^− and I^− (Galietta, L. J. V., Haggie, P. M., Verkman, A. S., 2001. Green fluorescent protein-based halide indicators with improved chloride and iodide affinities. FEBS Lett. 499, 220-224. doi:10.1016/S0014-5793(01)02561-3).
(§2) For this purpose, HEK293-cells were seeded in 96 well plates. During seeding, the cells were reverse-transfected with plasmid vectors that direct the expression of the CFTR G551D mutant and of the YFP reporter. Cells were incubated at 37° C., 5% CO2 for 24 hours so as to allow for sufficient expression of the CFTR protein.
(§3) The I^−-induced quenching of fluorescence was recorded immediately after injection of I^− for 7 seconds. The capacity of a compound to increase the channel opening was directly correlated with the decrease in fluorescence, and was expressed as (1−(fluorescence after 7 seconds (F)/fluorescence before injection (F0))) and an EC50 was derived from a (1−F/F0) vs compound concentration plot.
(§4) Similar YHA assays were developed for other channel gating defective or channel conductance defective CFTR mutants to determine effect of compound on channel activity. Examples of mutants are G178R, G1349D, S549N, R117H, R334W. This assay is also used for additional class I CFTR mutants, including G542X, W1282X; class II mutants including N1303K, and for class III mutants including S1251N; or wild-type CFTR.

CFTR-S549N = biological target: T2, CFTR-S549N (Homo sapiens, UniProt P13569, S549N); assay: YFP-halide influx assay for the CFTR-S549N; design: % Activation: concentration or dose not given beside the values
T2 construct: expressed in transfected cells
Excerpt: as §1, §2, §3, §4

G551D CFTR = G551D CFTR (Homo sapiens, UniProt P13569, G551D); assay: TECC assay, FRT-CFTR G551D protocol; conditions: FRT cells stably transfected with G551D CFTR, high expression cells, increase in Isc after forskolin
Method: For G551D recordings, Fischer Rat Thyroid (FRT) cells stably transfected with G551D CFTR (a low CFTR-G551D expressing cell line and a high expressing CFTR-G551D cell line from Rosalind Franklin University of Medicine and Science, North Chicago, Ill.) are plated on Transwell® supports (Costar 6.5 mm diameter, 0.4 μm pore size). The cells are grown for 8-10 days under liquid-liquid interface conditions prior to electrophysiological readings. For electrophysiological recording, the FRT-G551D cells are mounted in the TECC heating plate for electrophysiological measurement and kept at 37° C. The epithelia are bathed in HEPES buffered culturing medium without FBS on both the basolateral and apical sides. Apical amiloride is used to inhibit the endogenous ENaC currents while forkolin is applied on both apical and basolateral side to stimulate CFTR. After forskolin triggering, compounds are added on both sides to test their potential for increasing CFTR gating. Measurements are done during a 10 minute timeframe with recordings every 2 minutes. The increase in Isc is used as a measure for the increased CFTR activity, EC50 values can be generated by measuring impact of different concentrations of compound on Isc on the cells, for this purpose each transwell is treated with a different compound concentration. Inh-172, an inhibitor specific for CFTR, is used to test the specificity of the tested compounds.

CFTR-G1349D = biological target: T3, CFTR-G1349D (Homo sapiens, UniProt P13569, G1349D); assay: YFP-halide influx assay for the CFTR-G1349D
T3 construct: expressed in transfected cells
Excerpt: as §1, §2, §3, §4

CFTR G551D mutant = biological target: T4, CFTR G551D mutant (Homo sapiens, UniProt P13569, G551D); assay: YFP-halide influx assay for the CFTR-G551D mutation (HEK293 cells); conditions: forskolin 10.67 μM
T4 construct: expressed in transfected cells; host or cells: HEK293 cells, reverse transfection with plasmids
Method in brief: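 Channel opening read as I⁻-driven quenching of a YFP H148Q/I152L/F47L reporter over 7 s post-injection, expressed as 1−F/F0 and fitted against concentration for EC50. Cells were HEK293 co-transfected at seeding with G551D CFTR plus reporter, then grown 24 h at 37 °C, 5% CO2.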

CFTR-G178R = biological target: T5, CFTR-G178R (Homo sapiens, UniProt P13569, G178R); assay: YFP-halide influx assay for the CFTR-G178R
T5 construct: expressed in transfected cells
Excerpt: as §1, §2, §3, §4

CFTR ΔF508 mutant = biological target: T6, CFTR ΔF508 mutant (Homo sapiens, UniProt P13569, DEL508-508); assay: YFP-halide influx assay for the CFTR-ΔF508 mutation (CFBE41o- cells); conditions: forskolin 10.67 μM; for pEC50: from (1−F/F0) vs concentration plot
T6 construct: expressed in transfected cells; host or cells: CFBE41o- cells, adenoviral transduction
Method in brief: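 EC50 derived from plotting 1−F/F0 (fluorescence 36 s after iodide injection over pre-injection value) against compound concentration. Cells: CFBE41o- transduced with ΔF508-CFTR and YFP quench reporter, corrected 24 h at 27° C or by a CFTR modulator at 37° C.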

T1 sequence (P13569 whole entry R117H): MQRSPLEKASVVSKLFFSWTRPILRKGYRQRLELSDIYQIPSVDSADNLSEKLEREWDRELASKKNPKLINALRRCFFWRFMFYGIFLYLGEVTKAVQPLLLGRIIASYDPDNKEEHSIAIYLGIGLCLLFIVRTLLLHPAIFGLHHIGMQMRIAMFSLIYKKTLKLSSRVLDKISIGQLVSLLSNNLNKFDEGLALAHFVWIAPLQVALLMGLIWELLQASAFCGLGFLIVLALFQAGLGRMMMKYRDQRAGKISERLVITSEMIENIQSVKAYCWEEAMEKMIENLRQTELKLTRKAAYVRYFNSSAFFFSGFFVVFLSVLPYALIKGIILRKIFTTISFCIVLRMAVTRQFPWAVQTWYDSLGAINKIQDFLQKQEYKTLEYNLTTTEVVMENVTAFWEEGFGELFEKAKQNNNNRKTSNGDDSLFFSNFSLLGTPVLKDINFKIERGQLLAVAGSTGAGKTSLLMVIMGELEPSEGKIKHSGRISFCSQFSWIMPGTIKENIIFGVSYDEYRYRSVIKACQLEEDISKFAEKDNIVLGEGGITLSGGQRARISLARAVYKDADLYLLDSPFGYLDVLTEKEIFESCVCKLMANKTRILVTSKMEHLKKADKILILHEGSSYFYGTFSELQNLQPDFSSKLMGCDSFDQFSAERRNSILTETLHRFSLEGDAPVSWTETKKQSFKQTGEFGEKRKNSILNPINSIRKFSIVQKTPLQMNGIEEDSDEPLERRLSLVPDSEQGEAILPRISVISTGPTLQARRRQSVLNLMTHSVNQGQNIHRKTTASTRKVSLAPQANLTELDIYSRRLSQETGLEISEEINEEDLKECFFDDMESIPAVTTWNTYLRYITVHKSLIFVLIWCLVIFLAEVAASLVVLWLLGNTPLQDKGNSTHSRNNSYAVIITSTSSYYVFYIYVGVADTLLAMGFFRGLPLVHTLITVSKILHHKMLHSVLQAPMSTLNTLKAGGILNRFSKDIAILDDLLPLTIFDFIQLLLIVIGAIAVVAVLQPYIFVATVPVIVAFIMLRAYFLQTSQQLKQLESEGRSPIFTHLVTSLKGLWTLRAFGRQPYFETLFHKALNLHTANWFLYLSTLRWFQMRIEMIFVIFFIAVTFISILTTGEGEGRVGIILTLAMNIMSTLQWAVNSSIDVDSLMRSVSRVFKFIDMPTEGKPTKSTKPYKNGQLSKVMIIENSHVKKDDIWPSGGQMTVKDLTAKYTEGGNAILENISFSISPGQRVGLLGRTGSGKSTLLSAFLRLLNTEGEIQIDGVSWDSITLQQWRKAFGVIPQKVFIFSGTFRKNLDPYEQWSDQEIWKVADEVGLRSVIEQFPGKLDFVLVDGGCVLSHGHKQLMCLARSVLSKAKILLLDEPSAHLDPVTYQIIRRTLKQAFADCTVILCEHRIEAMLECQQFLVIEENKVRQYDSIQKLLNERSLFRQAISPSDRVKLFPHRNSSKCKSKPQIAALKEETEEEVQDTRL
Sequence of G551D CFTR (P13569 whole entry G551D): as the sequence (P13569 whole entry R117H) above, with H117R, G551D counted along it
T4 sequence (P13569 whole entry G551D): as the sequence (P13569 whole entry R117H) above, with H117R, G551D counted along it
T5 sequence (P13569 whole entry G178R): as the sequence (P13569 whole entry R117H) above, with H117R, G178R counted along it
T2 sequence (P13569 whole entry S549N): as the sequence (P13569 whole entry R117H) above, with H117R, S549N counted along it
T6 sequence (P13569 with tags, fused parts or gaps DEL508-508): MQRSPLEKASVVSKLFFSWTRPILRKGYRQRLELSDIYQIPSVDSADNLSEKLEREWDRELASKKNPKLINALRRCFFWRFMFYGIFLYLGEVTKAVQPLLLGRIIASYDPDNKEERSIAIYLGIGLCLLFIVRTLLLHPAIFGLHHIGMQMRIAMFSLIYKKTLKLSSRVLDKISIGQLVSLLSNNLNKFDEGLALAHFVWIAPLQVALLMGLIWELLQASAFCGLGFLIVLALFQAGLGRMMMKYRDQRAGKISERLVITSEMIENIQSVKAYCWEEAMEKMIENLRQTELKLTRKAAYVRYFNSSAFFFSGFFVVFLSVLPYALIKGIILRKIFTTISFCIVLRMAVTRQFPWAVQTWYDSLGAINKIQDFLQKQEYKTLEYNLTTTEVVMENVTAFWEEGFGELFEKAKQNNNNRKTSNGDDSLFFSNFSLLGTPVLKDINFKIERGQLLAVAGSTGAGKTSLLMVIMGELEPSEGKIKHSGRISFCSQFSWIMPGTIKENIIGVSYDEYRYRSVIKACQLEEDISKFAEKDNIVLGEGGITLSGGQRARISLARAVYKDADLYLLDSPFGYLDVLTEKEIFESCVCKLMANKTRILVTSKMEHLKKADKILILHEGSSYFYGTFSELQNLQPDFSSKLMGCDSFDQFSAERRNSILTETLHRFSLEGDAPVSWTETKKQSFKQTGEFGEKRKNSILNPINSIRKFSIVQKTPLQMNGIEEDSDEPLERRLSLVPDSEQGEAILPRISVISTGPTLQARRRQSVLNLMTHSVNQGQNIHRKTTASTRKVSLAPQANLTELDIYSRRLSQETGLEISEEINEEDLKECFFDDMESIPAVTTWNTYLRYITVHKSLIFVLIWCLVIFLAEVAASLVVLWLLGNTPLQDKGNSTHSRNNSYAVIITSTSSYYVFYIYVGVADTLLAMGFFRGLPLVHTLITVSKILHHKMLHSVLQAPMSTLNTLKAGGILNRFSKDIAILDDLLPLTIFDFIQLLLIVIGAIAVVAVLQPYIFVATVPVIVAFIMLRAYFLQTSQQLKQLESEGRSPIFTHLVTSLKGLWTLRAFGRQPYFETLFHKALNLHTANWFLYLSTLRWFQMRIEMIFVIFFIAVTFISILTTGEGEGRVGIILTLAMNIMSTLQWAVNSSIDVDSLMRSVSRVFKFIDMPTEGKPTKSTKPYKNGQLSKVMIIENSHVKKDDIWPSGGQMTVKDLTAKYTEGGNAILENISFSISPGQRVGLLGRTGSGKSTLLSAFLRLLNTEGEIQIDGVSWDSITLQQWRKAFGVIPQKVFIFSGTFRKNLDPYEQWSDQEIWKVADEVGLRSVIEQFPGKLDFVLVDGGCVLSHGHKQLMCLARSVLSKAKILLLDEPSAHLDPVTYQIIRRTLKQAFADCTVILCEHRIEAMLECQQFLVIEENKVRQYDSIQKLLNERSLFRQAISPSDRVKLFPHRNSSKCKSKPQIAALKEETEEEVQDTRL
T3 sequence (P13569 whole entry G1349D): as the sequence (P13569 whole entry R117H) above, with H117R, G1349D counted along it

| % Activation (CFTR-R117H) | pEC50 (CFTR-R117H) | % Activation (CFTR-S549N) | pEC50 (CFTR-S549N) | pEC50 (G551D CFTR) | % Activation (CFTR-G1349D) | pEC50 (CFTR-G1349D) | % Activation (CFTR G551D mutant) | pEC50 (CFTR G551D mutant) | % Activation (CFTR-G178R) | pEC50 (CFTR-G178R) | % Activation (CFTR ΔF508 mutant) | pEC50 (CFTR ΔF508 mutant) | Structure (SMILES) |
| --- | --- | --- | --- | --- | --- | --- | --- | --- | --- | --- | --- | --- | --- |
| 102.0% | 6.35 | 91.8% | 6.08 | 5.70 | 83.2% | 6.54 | 73.9% | 5.70 | 98.2% | 6.41 | 109.7% | 7.75 | COCC(O)CNC(=O)c1ncc(S(=O)(=O)c2ccc(OC(F)(F)F)cc2)cc1N (centres unmarked) [Compound 3, 3-amino-N-(2-hydroxy-3-methoxypropyl)-5-{[4-(trifluoromethoxy)phenyl]sulfonyl}pyridine-2-carboxamide] |
| 90.4% | 6.53 | 84.1% | 6.02 | 5.87 | 90.4% | 5.80 | 75.7% | 6.08 | 95.3% | 6.35 | 113.5% | 7.66 | CC(C)(O)CNC(=O)c1ncc(S(=O)(=O)c2ccc(C(F)(F)F)cc2)cc1N [Compound 11, 3-amino-N-(2-hydroxy-2-methylpropyl)-5-{[4-(trifluoromethyl)phenyl]sulfonyl}pyridine-2-carboxamide] |
| – | – | – | – | 6.17 | – | – | 69.3% | 6.44 | – | – | 109.0% | 8.59 | Nc1cc(S(=O)(=O)c2ccc(OC(F)(F)F)cc2)cnc1C(=O)NCC1(O)CC1 [Compound 15, 3-amino-N-[(1-hydroxycyclopropyl)methyl]-5-{[4-(trifluoromethoxy)phenyl]sulfonyl}pyridine-2-carboxamide] |
| – | – | – | – | 5.85 | – | – | 79.2% | < 5.48 | – | – | 109.1% | 7.37 | CC(C)(CO)CNC(=O)c1ncc(S(=O)(=O)c2ccc(OC(F)(F)F)cc2)cc1N [Compound 18, 3-amino-N-(3-hydroxy-2,2-dimethylpropyl)-5-{[4-(trifluoromethoxy)phenyl]sulfonyl}pyridine-2-carboxamide] |
| 90.8% | 6.73 | 79.6% | 5.79 | 5.26 | 84.3% | 6.18 | 63.2% | 5.97 | 89.9% | 6.25 | 113.3% | 7.79 | CC(O)(CNC(=O)c1ncc(S(=O)(=O)c2ccc(F)cc2)cc1N)C(F)(F)F (centres unmarked) [Compound 19, 3-amino-5-[(4-fluorophenyl)sulfonyl]-N-(3,3,3-trifluoro-2-hydroxy-2-methylpropyl)pyridine-2-carboxamide] |
| – | – | – | – | 5.43 | – | – | 64.8% | 6.05 | – | – | 98.5% | 7.53 | C[C@@H](O)CNC(=O)c1ncc(S(=O)(=O)c2ccc(OC(F)(F)F)cc2)cc1N [Compound 20, 3-amino-N-[(2R)-2-hydroxypropyl]-5-{[4-(trifluoromethoxy)phenyl]sulfonyl}pyridine-2-carboxamide] |
| – | – | – | – | 5.55 | – | – | 52.2% | 6.37 | – | – | 106.6% | 7.67 | CC(CO)CNC(=O)c1ncc(S(=O)(=O)c2ccc(OC(F)(F)F)cc2)cc1N (centres unmarked) [Compound 24, 3-amino-N-(3-hydroxy-2-methylpropyl)-5-{[4-(trifluoromethoxy)phenyl]sulfonyl}pyridine-2-carboxamide] |
| 94.2% | 7.03 | – | – | 6.94 | 87.6% | 6.67 | 55.0% | 6.54 | – | – | 115.2% | 7.96 | CC(C)(O)C1CN(C(=O)c2ncc(S(=O)(=O)c3ccc(C(F)(F)F)cc3)cc2N)C1 [Compound 165, (3-amino-5-{[4-(trifluoromethyl)phenyl]sulfonyl}pyridin-2-yl)[3-(2-hydroxypropan-2-yl)azetidin-1-yl]methanone] |
